In paper PMC8333425, “Discovery of a dual Ras and ARF6 inhibitor from a GPCR endocytosis screen” (Nature Communications, 2021):

How the values were obtained:
Experiment in all cases: KINOMEscan kinase binding assay
[1] = biological target: T1, 384 kinases from the human genome (Homo sapiens, UniProt O00506); details: kinase YSK1 (Entrez STK25)
T1 construct: purchased Eurofin/DiscoverX
In short: (§1)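 A panel of 384 human kinases was profiled by KINOMEscan binding in the presence of 10 µM compound. Kinase–ligand binding was given as percent of DMSO control, averaged from duplicates in a single run, with an S(10) selectivity score.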

[2] = biological target: T2, 384 kinases from the human genome (Homo sapiens, UniProt O60285); details: kinase ARK5 (Entrez NUAK1)
T2 construct: purchased Eurofin/DiscoverX
In short: as §1

[3] = biological target: T3, 384 kinases from the human genome (Homo sapiens, UniProt O76039); details: kinase CDKL5 (Entrez CDKL5)
T3 construct: purchased Eurofin/DiscoverX
In short: as §1

[4] = biological target: T4, 384 kinases from the human genome (Homo sapiens, UniProt O94804); details: kinase LOK (Entrez STK10)
T4 construct: purchased Eurofin/DiscoverX
In short: as §1

[5] = biological target: T5, 384 kinases from the human genome (Homo sapiens, UniProt O94921); details: kinase PFTK1 (Entrez CDK14)
T5 construct: purchased Eurofin/DiscoverX
In short: as §1

[6] = biological target: T6, 384 kinases from the human genome (Homo sapiens, UniProt P00519); details: kinase ABL1-phosphorylated (Entrez ABL1)
T6 construct: purchased Eurofin/DiscoverX
In short: as §1

[7] = biological target: T7, 384 kinases from the human genome (Homo sapiens, UniProt P07332); details: kinase FES (Entrez FES)
T7 construct: purchased Eurofin/DiscoverX
In short: as §1

[8] = biological target: T8, 384 kinases from the human genome (Homo sapiens, UniProt P24941); details: kinase CDK2 (Entrez CDK2)
T8 construct: purchased Eurofin/DiscoverX
In short: as §1

[9] = biological target: T9, 384 kinases from the human genome (Homo sapiens, UniProt P29320); details: kinase EPHA3 (Entrez EPHA3)
T9 construct: purchased Eurofin/DiscoverX
In short: as §1

[10] = biological target: T10, 384 kinases from the human genome (Homo sapiens, UniProt P42681); details: kinase TXK (Entrez TXK)
T10 construct: purchased Eurofin/DiscoverX
In short: as §1

[11] = biological target: T11, 384 kinases from the human genome (Homo sapiens, UniProt P42685); details: kinase FRK (Entrez FRK)
T11 construct: purchased Eurofin/DiscoverX
In short: as §1

[12] = biological target: T12, 384 kinases from the human genome (Homo sapiens, UniProt P50613); details: kinase CDK7 (Entrez CDK7)
T12 construct: purchased Eurofin/DiscoverX
In short: as §1

[13] = biological target: T13, 384 kinases from the human genome (Homo sapiens, UniProt P54764); details: kinase EPHA4 (Entrez EPHA4)
T13 construct: purchased Eurofin/DiscoverX
In short: as §1

[14] = biological target: T14, 384 kinases from the human genome (Homo sapiens, UniProt Q00526); details: kinase CDK3 (Entrez CDK3)
T14 construct: purchased Eurofin/DiscoverX
In short: as §1

[15] = biological target: T15, 384 kinases from the human genome (Homo sapiens, UniProt Q08881); details: kinase ITK (Entrez ITK)
T15 construct: purchased Eurofin/DiscoverX
In short: as §1

[16] = biological target: T16, 384 kinases from the human genome (Homo sapiens, UniProt Q15835); details: kinase GRK1 (Entrez GRK1)
T16 construct: purchased Eurofin/DiscoverX
In short: as §1

[17] = biological target: T17, 384 kinases from the human genome (Homo sapiens, UniProt Q16620); details: kinase TRKB (Entrez NTRK2)
T17 construct: purchased Eurofin/DiscoverX
In short: as §1

[18] = biological target: T18, 384 kinases from the human genome (Homo sapiens, UniProt Q6DT37); details: kinase DMPK2 (Entrez CDC42BPG)
T18 construct: purchased Eurofin/DiscoverX
In short: as §1

[19] = biological target: T19, 384 kinases from the human genome (Homo sapiens, UniProt Q6ZWH5); details: kinase NEK10 (Entrez NEK10)
T19 construct: purchased Eurofin/DiscoverX
In short: as §1

[20] = biological target: T20, 384 kinases from the human genome (Homo sapiens, UniProt Q7L7X3); details: kinase TAOK1 (Entrez TAOK1)
T20 construct: purchased Eurofin/DiscoverX
In short: as §1

[21] = biological target: T21, 384 kinases from the human genome (Homo sapiens, UniProt Q8N568); details: kinase DCAMKL2 (Entrez DCLK2)
T21 construct: purchased Eurofin/DiscoverX
In short: as §1

[22] = biological target: T22, 384 kinases from the human genome (Homo sapiens, UniProt Q92630); details: kinase DYRK2 (Entrez DYRK2)
T22 construct: purchased Eurofin/DiscoverX
In short: as §1

[23] = biological target: T23, 384 kinases from the human genome (Homo sapiens, UniProt Q9H2K8); details: kinase TAOK3 (Entrez TAOK3)
T23 construct: purchased Eurofin/DiscoverX
In short: as §1

[24] = biological target: T24, 384 kinases from the human genome (Homo sapiens, UniProt Q9HCP0); details: kinase CSNK1G1 (Entrez CSNK1G1)
T24 construct: purchased Eurofin/DiscoverX
In short: as §1

[25] = biological target: T25, 384 kinases from the human genome (Homo sapiens, UniProt Q9NRH2); details: kinase SNRK (Entrez SNRK)
T25 construct: purchased Eurofin/DiscoverX
In short: as §1

[26] = biological target: T26, 384 kinases from the human genome (Homo sapiens, UniProt Q9UPE1); details: kinase SRPK3 (Entrez SRPK3)
T26 construct: purchased Eurofin/DiscoverX
In short: as §1

[27] = biological target: T27, 384 kinases from the human genome (Homo sapiens, UniProt Q9UQM7); details: kinase CAMK2A (Entrez CAMK2A)
T27 construct: purchased Eurofin/DiscoverX
In short: as §1

T10 sequence (P42681 whole entry): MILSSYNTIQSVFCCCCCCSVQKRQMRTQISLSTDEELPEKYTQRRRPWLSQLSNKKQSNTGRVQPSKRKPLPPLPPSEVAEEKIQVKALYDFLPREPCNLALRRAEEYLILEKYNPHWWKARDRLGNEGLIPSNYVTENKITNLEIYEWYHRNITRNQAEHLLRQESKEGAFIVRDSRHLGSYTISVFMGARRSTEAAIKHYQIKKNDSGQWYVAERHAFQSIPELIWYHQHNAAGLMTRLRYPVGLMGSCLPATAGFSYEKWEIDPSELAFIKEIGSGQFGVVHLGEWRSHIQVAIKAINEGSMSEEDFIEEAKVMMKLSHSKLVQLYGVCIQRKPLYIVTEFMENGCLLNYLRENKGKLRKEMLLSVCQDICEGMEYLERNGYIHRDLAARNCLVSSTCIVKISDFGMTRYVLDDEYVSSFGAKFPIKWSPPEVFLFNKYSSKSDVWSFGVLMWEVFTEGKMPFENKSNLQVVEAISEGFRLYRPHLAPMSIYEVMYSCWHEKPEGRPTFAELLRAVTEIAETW
T19 sequence (Q6ZWH5 whole entry): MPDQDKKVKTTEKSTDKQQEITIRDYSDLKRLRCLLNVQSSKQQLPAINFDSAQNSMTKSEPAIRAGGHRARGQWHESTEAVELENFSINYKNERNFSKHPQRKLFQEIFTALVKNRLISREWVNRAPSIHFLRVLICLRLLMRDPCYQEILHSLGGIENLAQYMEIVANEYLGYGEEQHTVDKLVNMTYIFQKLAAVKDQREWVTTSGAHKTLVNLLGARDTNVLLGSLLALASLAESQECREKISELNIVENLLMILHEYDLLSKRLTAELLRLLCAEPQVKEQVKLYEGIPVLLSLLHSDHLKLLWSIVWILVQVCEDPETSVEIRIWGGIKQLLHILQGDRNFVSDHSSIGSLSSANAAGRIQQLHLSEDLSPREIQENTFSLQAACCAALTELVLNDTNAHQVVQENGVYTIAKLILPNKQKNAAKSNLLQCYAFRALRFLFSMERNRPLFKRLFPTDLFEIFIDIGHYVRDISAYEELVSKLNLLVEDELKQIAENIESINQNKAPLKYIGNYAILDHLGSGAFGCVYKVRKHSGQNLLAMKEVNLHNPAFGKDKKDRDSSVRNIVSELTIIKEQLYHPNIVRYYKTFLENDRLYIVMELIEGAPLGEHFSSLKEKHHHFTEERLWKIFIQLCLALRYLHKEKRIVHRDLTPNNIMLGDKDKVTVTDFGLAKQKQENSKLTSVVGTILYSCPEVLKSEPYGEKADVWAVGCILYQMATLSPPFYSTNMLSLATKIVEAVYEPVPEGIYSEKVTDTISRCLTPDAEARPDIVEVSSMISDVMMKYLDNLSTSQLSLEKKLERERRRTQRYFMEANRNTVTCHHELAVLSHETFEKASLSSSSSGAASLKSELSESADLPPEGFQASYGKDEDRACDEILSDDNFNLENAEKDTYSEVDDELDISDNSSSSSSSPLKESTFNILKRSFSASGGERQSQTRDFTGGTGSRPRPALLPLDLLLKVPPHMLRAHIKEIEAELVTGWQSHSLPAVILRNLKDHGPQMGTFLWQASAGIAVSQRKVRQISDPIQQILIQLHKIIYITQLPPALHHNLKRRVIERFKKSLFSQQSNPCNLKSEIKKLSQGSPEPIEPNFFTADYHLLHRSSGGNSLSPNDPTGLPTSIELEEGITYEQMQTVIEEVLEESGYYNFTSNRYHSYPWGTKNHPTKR
T21 sequence (Q8N568 whole entry): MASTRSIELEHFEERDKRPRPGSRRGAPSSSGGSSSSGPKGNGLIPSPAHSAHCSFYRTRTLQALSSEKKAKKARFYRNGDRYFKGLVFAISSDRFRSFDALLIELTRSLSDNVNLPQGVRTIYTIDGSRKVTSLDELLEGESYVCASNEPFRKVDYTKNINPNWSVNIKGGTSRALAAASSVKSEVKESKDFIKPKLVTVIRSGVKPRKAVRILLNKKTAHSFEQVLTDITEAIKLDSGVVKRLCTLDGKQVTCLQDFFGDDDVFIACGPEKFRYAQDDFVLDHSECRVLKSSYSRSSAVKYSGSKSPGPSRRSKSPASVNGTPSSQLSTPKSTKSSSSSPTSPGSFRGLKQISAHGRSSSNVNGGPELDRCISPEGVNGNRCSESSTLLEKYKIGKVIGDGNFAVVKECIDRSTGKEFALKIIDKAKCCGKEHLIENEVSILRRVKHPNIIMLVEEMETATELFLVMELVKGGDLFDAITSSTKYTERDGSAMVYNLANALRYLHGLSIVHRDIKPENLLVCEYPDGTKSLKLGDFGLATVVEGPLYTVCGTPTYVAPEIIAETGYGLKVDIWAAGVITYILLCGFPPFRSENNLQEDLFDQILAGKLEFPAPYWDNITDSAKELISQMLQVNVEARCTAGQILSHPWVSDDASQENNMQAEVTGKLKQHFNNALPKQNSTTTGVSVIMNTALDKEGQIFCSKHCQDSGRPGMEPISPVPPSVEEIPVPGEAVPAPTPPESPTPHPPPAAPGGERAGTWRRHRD
T5 sequence (O94921 whole entry): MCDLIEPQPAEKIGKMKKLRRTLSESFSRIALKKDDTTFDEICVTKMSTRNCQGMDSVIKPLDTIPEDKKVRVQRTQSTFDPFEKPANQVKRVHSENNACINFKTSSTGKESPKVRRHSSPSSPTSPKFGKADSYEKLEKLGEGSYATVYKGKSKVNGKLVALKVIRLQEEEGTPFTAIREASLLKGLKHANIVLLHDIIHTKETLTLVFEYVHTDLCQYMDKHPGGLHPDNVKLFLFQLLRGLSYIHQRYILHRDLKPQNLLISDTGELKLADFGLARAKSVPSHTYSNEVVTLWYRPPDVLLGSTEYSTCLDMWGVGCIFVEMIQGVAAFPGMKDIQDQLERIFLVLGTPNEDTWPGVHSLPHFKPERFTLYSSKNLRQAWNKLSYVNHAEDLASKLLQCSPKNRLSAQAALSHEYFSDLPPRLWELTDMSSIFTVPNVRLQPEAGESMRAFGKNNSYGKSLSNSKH
T1 sequence (O00506 whole entry): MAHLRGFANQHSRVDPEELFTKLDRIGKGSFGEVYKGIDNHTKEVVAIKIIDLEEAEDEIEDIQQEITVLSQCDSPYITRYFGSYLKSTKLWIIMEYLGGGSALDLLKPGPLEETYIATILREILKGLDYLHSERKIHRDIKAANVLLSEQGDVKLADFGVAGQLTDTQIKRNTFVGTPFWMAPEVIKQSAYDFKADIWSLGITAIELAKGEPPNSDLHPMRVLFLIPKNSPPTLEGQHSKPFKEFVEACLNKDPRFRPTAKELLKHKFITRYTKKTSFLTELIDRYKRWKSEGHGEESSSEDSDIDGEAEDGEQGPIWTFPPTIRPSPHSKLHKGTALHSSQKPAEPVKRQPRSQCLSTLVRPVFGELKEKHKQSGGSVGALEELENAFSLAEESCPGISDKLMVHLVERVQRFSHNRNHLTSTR
T2 sequence (O60285 whole entry): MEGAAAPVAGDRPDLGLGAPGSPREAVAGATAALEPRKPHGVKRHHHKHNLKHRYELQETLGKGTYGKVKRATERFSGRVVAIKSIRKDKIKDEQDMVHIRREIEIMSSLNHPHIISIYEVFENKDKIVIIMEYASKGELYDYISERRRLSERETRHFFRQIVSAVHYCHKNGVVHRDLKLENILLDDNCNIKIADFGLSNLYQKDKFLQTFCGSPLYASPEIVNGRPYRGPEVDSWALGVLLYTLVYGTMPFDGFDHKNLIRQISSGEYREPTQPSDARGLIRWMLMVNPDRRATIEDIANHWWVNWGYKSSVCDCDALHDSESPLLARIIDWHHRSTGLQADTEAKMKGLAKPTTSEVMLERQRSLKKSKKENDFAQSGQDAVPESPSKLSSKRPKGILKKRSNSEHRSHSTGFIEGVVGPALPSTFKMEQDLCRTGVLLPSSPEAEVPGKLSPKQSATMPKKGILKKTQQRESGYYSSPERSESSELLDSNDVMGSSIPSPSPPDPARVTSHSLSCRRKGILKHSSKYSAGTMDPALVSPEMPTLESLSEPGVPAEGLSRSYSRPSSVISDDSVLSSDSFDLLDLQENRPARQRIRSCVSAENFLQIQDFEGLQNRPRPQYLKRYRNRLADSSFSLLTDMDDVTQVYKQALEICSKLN
T11 sequence (P42685 whole entry): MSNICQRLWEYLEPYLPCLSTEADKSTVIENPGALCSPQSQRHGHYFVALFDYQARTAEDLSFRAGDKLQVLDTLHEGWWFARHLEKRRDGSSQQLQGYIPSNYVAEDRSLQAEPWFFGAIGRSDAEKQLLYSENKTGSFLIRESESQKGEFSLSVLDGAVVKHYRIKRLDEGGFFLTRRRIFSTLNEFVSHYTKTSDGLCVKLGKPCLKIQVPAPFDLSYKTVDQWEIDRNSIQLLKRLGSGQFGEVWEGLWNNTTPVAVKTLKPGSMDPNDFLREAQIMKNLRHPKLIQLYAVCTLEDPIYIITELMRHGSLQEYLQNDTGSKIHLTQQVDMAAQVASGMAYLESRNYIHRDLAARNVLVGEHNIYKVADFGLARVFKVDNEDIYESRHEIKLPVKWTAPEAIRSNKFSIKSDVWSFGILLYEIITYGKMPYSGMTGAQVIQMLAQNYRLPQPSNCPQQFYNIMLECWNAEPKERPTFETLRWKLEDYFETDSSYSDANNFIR
T12 sequence (P50613 whole entry): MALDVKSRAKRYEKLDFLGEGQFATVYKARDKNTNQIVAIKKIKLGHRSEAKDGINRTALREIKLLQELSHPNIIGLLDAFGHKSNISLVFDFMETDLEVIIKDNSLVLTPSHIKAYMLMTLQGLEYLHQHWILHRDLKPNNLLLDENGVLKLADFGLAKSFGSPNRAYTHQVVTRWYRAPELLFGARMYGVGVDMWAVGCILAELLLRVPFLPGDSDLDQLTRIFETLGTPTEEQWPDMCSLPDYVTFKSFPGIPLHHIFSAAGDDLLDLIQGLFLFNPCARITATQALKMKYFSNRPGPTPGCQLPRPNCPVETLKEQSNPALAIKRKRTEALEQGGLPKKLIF

For CC(C)C(=O)N1CCN(c2ccc(NC(=O)c3cc4ccccc4o3)cc2Cl)CC1 [Compound 21], the “Percent Control” value [1] was 100%, the “Percent Control” value [2] was 97% and the “Percent Control” value [3] was 89%. For the same compound, the “Percent Control” value [4] was 100%, the “Percent Control” value [5] was 92% and the “Percent Control” value [6] was 89%. The “Percent Control” value [7] was 73%, the “Percent Control” value [8] was 100% and the “Percent Control” value [9] was 91%. For the same compound, the “Percent Control” value [10] was 76%, the “Percent Control” value [11] was 79% and the “Percent Control” value [12] was 83%. For the same compound, the “Percent Control” value [13] was 95%, the “Percent Control” value [14] was 99% and the “Percent Control” value [15] was 100%. The “Percent Control” value [16] was 94%, the “Percent Control” value [17] was 55% and the “Percent Control” value [18] was 77%. The “Percent Control” value [19] was 95%, the “Percent Control” value [20] was 100% and the “Percent Control” value [21] was 99%. The “Percent Control” value [22] was 94%, the “Percent Control” value [23] was 100% and the “Percent Control” value [24] was 87%. For the same compound, the “Percent Control” value [25] was 78%, the “Percent Control” value [26] was 100% and the “Percent Control” value [27] was 100%.
